Reference: patent publication US10875845B2, “Compounds and methods for the treatment of ocular disorders” (Azura Ophthalmics Ltd., priority 2019, dated 2020)

What was measured:
Rabbit Cornea Homogenate = Rabbit Cornea Homogenate Stability Assay (rabbit cornea esterase assay); type: in vitro ADME; settings: 37° C.
Method: Determining Rabbit Cornea Homogenate stability of the test compounds was performed using HPLC-MS. The assay was performed at two concentrations of Rabbit Cornea Homogenate (0.15 mg/ml and 0.45 mg/ml total protein) so that any hydrolysis observed could be assigned as esterase dependent or not.
Five rabbit corneas (e.g. New Zealand Whites) of approx. 50 mg each were sliced and scraped with a scalpel and tweezers until reduced to small (1-3 mm), thin pieces. These were transferred into a tared vial and accurately weighed, then diluted with 10 volumes aqueous PBS pH7.4
Sample was cooled intermittently on ice and shear homogenized for 3 minutes, then centrifuged for 3 min at 3000 rpm. The supernatant was pipetted off into a vial, and total protein concentration determined at 280 nm. Sample was stored at −78° C.
10 mM Compound stocks were diluted to 100 μM in a 96 deep-well plate: 10 μl of 10 mM Compound stock was added to 990 μl 50 mM HEPES, pH7.5 buffer.
Compounds were further diluted to 10 μM: 100 μl of 100 μM compound was added to 900 μl 50 mM HEPES, pH7.5 buffer.
Esterase homogenate was diluted to 300 ng/μl and 900 ng/μl
A heater shaker was set to 37° C. Into a suitable 96 well plate (Run Plate), 75 μl of 300 or 900 ng/μl esterase homogenate was pipetted into each of the required wells (2 min, 5 min, 10 min, 20 min and 45 min). The plate was sealed and then warmed at 37° C. for 5 min. Another 96 well PCR plate is put on ice (Kill Plate). To this was added 100 μl of MeCN to each well, labelled 0 min, 2 min, 5 min, 10 min, 20 min and 45 min. The plate was covered to minimise evaporation. For the T=0 sample only, to the 100 μl cold MeCN stop solution was added 50 μl of 300 or 900 ng/μl esterase homogenate followed by 50 μl of 10 μM compound solution For the remaining time points, 75 μl of 10 μM compound solution was added to the Run Plate starting from T=45 min row and ending with T=2 min row. At the appropriate time point, 100 μl of the assay mixture was added to the matching kill plate well containing 100 μl of cold MeCN. Samples were analysed as soon as practicable by LCMS (Waters Xevo TQ-S or Micromass Ultima).
Parent conjugate and parent concentrations were determined against appropriate standard response curves and the half-life (T1/2) of the parent conjugate was calculated using the peak area of the parent conjugate at each time point in the linear region of the log—linear plot.

[1] = Aqueous Hydrolysis Stability Assay; type: physicochemical; settings: at 45 min; 100 μM in 50 mM HEPES pH 7.5 buffer or 1:1 Acetonitrile:Water, room temperature
Method: Determination of aqueous stability of the test compounds was performed using HPLC-MS. A test compound 10 mM stock solution was prepared in DMSO. 10 μl of the DMSO stock solution was dissolved in 990 μl of 50 mM HEPES pH 7.5 buffer or 1:1 (v/v) of Acetonitrile:Water to make a 100 μM solution. Final DMSO concentration was 1%. The solution was kept at room temperature and injected without delay into the LCMS (Waters Xevo TQ-S or Micromass Ultima). Additional injections were performed at appropriate time points.
Half-life (T1/2) of the parent conjugate was calculated using the peak area of the parent conjugate at each time point in the linear region of the log—linear plot.

[2] = Cornea Homogenate Conc 0.15 mg/mL
[3] = Cornea Homogenate Conc 0.45 mg/mL

**Q.** Which results are given for `CCOC(=O)OC(C)OC(=O)[C@H](Cc1cccc(S(C)(=O)=O)c1)NC(=O)c1c(Cl)cc2c(c1Cl)CCN(C(=O)c1ccc3ccoc3c1)C2` (stereo partly drawn) [Comp 4, 1-((ethoxycarbonyl)oxy)ethyl (2S)-2-(2-(benzofuran-6-carbonyl)-5,7-dichloro-1,2,3,4-tetrahydroisoquinoline-6-carboxamido)-3-(3-(methylsulfonyl)phenyl) propanoate]?
**A.** API Formation rate (Rabbit Cornea Homogenate; [2]): b (API formation rate 0.5-1.0%/min); Esterase % Lifitegrast formation at 45 min (Rabbit Cornea Homogenate; [2]): B (percent API formation 25% to 50%); API Formation rate (Rabbit Cornea Homogenate; [3]): c (API formation rate 1.0-1.5%/min); Esterase % Lifitegrast formation at 45 min (Rabbit Cornea Homogenate; [3]): C (percent API formation 51% to 75%); Hydrolytic % Lifitegrast formation at [time] [1]: B [45 min] (percent API formation 1.5-4%)
